Assay results published in patent US20060241172A1, “Benzodioxane and benzodioxolane derivatives and uses thereof” (Wyeth, priority 2005, published 2006).

Experiments:
[1] = molecular target: T1, human 5-HT2C receptor (Homo sapiens, UniProt P28335); experiment: 5-HT2C receptor-stimulated calcium mobilization (FLIPR) in CHO cells; assay type: cell-based; details: for Emax: CHO, read-out: 5-HT2C Function EMax (%); for EC50: read-out: 5-HT2C Function EC50
T1 sequence (P28335 33-458): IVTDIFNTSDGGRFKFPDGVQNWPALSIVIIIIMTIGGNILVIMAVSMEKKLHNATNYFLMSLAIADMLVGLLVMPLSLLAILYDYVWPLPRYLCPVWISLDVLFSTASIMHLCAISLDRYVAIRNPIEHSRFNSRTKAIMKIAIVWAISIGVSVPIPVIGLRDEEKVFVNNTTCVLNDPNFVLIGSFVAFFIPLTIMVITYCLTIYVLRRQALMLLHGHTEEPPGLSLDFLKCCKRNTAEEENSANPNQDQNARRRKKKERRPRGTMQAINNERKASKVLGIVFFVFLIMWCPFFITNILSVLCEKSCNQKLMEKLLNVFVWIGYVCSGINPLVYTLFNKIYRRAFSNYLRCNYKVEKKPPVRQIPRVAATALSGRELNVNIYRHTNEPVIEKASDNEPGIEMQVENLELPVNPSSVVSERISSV

[2] = molecular target: T2, human 5-hydroxytryptamine-2C (h5-HT2C) receptor (Homo sapiens, UniProt P28335); experiment: 5-HT2C binding: [125I]DOI displacement in membranes of transfected CHO cells; details: read-out: 5-HT2C Binding Ki avg
T2 construct: expressed in transfected cells; host or cells: CHO (Chinese Hamster Ovary) cells; membranes
T2 sequence (P28335 33-458): T1 sequence (P28335 33-458)

| Structure (SMILES) | Emax [1] [%] | EC50 [1] [nM] | Ki [2] [nM] |
| --- | --- | --- | --- |
| COc1ccccc1-c1cccc2c1OC(CN)CO2 (stereo not drawn) [Compound I-5, {[8-(2-Methoxyphenyl)-2,3-dihydro-1,4-benzodioxin-2-yl]methyl}amine] | 60 | < 100 | 50 to 200 |
| NCC1COc2cccc(-c3cccc(Cl)c3Cl)c2O1 (stereo not drawn) [Compound I-6, {[8-(2,3-Dichlorophenyl)-2,3-dihydro-1,4-benzodioxin-2-yl]methyl}amine] | 70 | 100 to 500 | 50 to 200 |
| NCC1COc2cccc(-c3ccc(Cl)cc3Cl)c2O1 (stereo not drawn) [Compound I-7, {[8-(2,4-Dichlorophenyl)-2,3-dihydro-1,4-benzodioxin-2-yl]methyl}amine] | 70 | < 100 | < 50 |
| NCC1COc2cccc(-c3cc(Cl)ccc3Cl)c2O1 (stereo not drawn) [Compound I-8, {[8-(2,5-Dichlorophenyl)-2,3-dihydro-1,4-benzodioxin-2-yl]methyl}amine] | 60 | < 100 | < 50 |
| COc1cccc(-c2cccc3c2OC(CN)CO3)c1OC (stereo not drawn) [Compound I-9, {[8-(2,3-Dimethoxyphenyl)-2,3-dihydro-1,4-benzodioxin-2-yl]methyl}amine] | 50 | < 100 | < 50 |
| Cc1cccc(-c2cccc3c2OC(CN)CO3)c1C (stereo not drawn) [Compound I-10, {[8-(2,3-Dimethylphenyl)-2,3-dihydro-1,4-benzodioxin-2-yl]methyl}amine] | 50 | 100 to 500 | > 200 |
| Cc1ccc(C)c(-c2cccc3c2OC(CN)CO3)c1 (stereo not drawn) [Compound I-11, {[8-(2,5-Dimethylphenyl)-2,3-dihydro-1,4-benzodioxin-2-yl]methyl}amine] | 60 | 100 to 500 | > 200 |
| Cc1cccc(C)c1-c1cccc2c1OC(CN)CO2 (stereo not drawn) [Compound I-12, {[8-(2,6-Dimethylphenyl)-2,3-dihydro-1,4-benzodioxin-2-yl]methyl}amine] | 70 | < 100 | < 50 |
| NCC1COc2cccc(-c3cccc(F)c3F)c2O1 (stereo not drawn) [Compound I-13, {[8-(2,3-Difluorophenyl)-2,3-dihydro-1,4-benzodioxin-2-yl]methyl}amine] | 70 | < 100 | < 50 |
| NCC1COc2cccc(-c3ccc(F)cc3F)c2O1 (stereo not drawn) [Compound I-14, {[8-(2,4-Difluorophenyl)-2,3-dihydro-1,4-benzodioxin-2-yl]methyl}amine] | 70 | < 100 | < 50 |
| NCC1COc2cccc(-c3cc(F)ccc3F)c2O1 (stereo not drawn) [Compound I-15, {[8-(2,5-Difluorophenyl)-2,3-dihydro-1,4-benzodioxin-2-yl]methyl}amine] | 60 | < 100 | < 50 |
| COc1ccc(Cl)cc1-c1cccc2c1OC(CN)CO2 (stereo not drawn) [Compound I-16, {[8-(5-Chloro-2-methoxyphenyl)-2,3-dihydro-1,4-benzodioxin-2-yl]methyl}amine] | 60 | < 100 | 50 to 200 |
| CNCC1COc2cccc(-c3ccccc3F)c2O1 (stereo not drawn) [Compound I-18, {[8-(2-Fluorophenyl)-2,3-dihydro-1,4-benzodioxin-2-yl]methyl}methylamine] | 50 | < 100 | < 50 |
| CNCC1COc2cccc(-c3ccccc3OC)c2O1 (stereo not drawn) [Compound I-19, {[8-(2-Methoxyphenyl)-2,3-dihydro-1,4-benzodioxin-2-yl]methyl}methylamine] | 20 | 100 to 500 | > 200 |
| CNCC1COc2cccc(-c3ccccc3C(F)(F)F)c2O1 (stereo not drawn) [Compound I-20, N-Methyl-1-{8-[2-(trifluoromethyl)phenyl]-2,3-dihydro-1,4-benzodioxin-2-yl}methanamine] | 40 | > 500 | 50 to 200 |
| CNCC1COc2cccc(-c3ccccc3Cl)c2O1 (stereo not drawn) [Compound I-21, {[8-(2-Chlorophenyl)-2,3-dihydro-1,4-benzodioxin-2-yl]methyl}methylamine] | 40 | < 100 | < 50 |
| CNCC1COc2cccc(-c3cccc(OC)c3OC)c2O1 (stereo not drawn) [Compound I-30, {[8-(2,3-Dimethoxyphenyl)-2,3-dihydro-1,4-benzodioxin-2-yl]methyl}methylamine] | – | > 500 | 50 to 200 |
| CNCC1COc2cccc(-c3cc(Cl)ccc3OC)c2O1 (stereo not drawn) [Compound I-31, {[8-(5-Chloro-2-methoxyphenyl)-2,3-dihydro-1,4-benzodioxin-2-yl]methyl}methylamine] | 20 | 100 to 500 | > 200 |

| Structure (SMILES) | Emax [1] [%] | EC50 [1] [nM] | Ki [2] [nM] |
| --- | --- | --- | --- |
| CCNCC1COc2cccc(-c3ccc(Cl)cc3Cl)c2O1 (stereo not drawn) [Compound I-33, N-{[8-(2,4-Dichlorophenyl)-2,3-dihydro-1,4-benzodioxin-2-yl]methyl}ethanamine] | 30 | > 500 | 50 to 200 |
| CCCNCC1COc2cccc(-c3ccc(Cl)cc3Cl)c2O1 (stereo not drawn) [Compound I-35, N-{[8-(2,4-Dichlorophenyl)-2,3-dihydro-1,4-benzodioxin-2-yl]methyl}propan-1-amine] | – | > 500 | 50 to 200 |
| CC(C)NCC1COc2cccc(-c3ccccc3Cl)c2O1 (stereo not drawn) [Compound I-36, N-{[8-(2-Chlorophenyl)-2,3-dihydro-1,4-benzodioxin-2-yl]methyl}propan-2-amine] | – | > 500 | > 200 |
| CC(C)NCC1COc2cccc(-c3ccc(Cl)cc3Cl)c2O1 (stereo not drawn) [Compound I-37, N-{[8-(2,4-Dichlorophenyl)-2,3-dihydro-1,4-benzodioxin-2-yl]methyl}propan-2-amine] | 20 | > 500 | > 200 |
| CN(C)CC1COc2cccc(-c3ccccc3Cl)c2O1 (stereo not drawn) [Compound I-38, {[8-(2-Chlorophenyl)-2,3-dihydro-1,4-benzodioxin-2-yl]methyl}dimethylamine] | 30 | 100 to 500 | < 50 |
| CN(C)CC1COc2cccc(-c3ccc(Cl)cc3Cl)c2O1 (stereo not drawn) [Compound I-39, {[8-(2,4-Dichlorophenyl)-2,3-dihydro-1,4-benzodioxin-2-yl]methyl}dimethylamine] | 20 | 100 to 500 | < 50 |
| C=CCNCC1COc2cccc(-c3ccc(Cl)cc3Cl)c2O1 (stereo not drawn) [Compound I-40, N-{[8-(2,4-Dichlorophenyl)-2,3-dihydro-1,4-benzodioxin-2-yl]methyl}prop-2-en-1-amine] | 30 | > 500 | > 200 |
| Clc1ccccc1-c1cccc2c1OC(CNCC1CC1)CO2 (stereo not drawn) [Compound I-41, {[8-(2-Chlorophenyl)-2,3-dihydro-1,4-benzodioxin-2-yl]methyl}(cyclopropylmethyl)-amine] | 20 | > 500 | 50 to 200 |
| Clc1ccc(-c2cccc3c2OC(CNCC2CC2)CO3)c(Cl)c1 (stereo not drawn) [Compound I-42, (Cyclopropylmethyl) {[8-(2,4-dichlorophenyl)-2,3-dihydro-1,4-benzodioxin-2-yl]methyl}amine] | – | > 500 | > 200 |
| Clc1ccccc1-c1cccc2c1OC(CNC1CC1)CO2 (stereo not drawn) [Compound I-43, N-{[8-(2-Chlorophenyl)-2,3-dihydro-1,4-benzodioxin-2yl]methyl}cyclopropanamine] | 30 | > 500 | > 200 |
| Clc1ccc(-c2cccc3c2OC(CNC2CC2)CO3)c(Cl)c1 (stereo not drawn) [Compound I-44, N-{[8-(2,4-Dichlorophenyl)-2,3-dihydro-1,4-benzodioxin-2-yl]methyl}cyclopropanamine] | – | > 500 | 50 to 200 |
| Clc1ccc(-c2cccc3c2OC(CNC2CCC2)CO3)c(Cl)c1 (stereo not drawn) [Compound I-45, N-{[8-(2,4-Dichlorophenyl)-2,3-dihydro-1,4-benzodioxin-2-yl]methyl}cyclobutanamine] | 30 | > 500 | > 200 |
| NC[C@H]1COc2cc(F)cc(-c3c(Cl)cccc3Cl)c2O1 [Compound I-47, {[(2S)-8-(2,6-Dichlorophenyl)-6-fluoro-2,3-dihydro-1,4-benzodioxin-2-yl]methyl}amine] | 60 | < 100 | < 50 |
| C[C@]1(CN)COc2cccc(-c3ccccc3Cl)c2O1 [Compound I-49, {[(2S)-8-(2-Chlorophenyl)-2-methyl-2,3-dihydro-1,4-benzodioxin-2-yl]methyl}amine] | 70 | > 500 | < 50 |
| NC[C@H]1COc2cccc(-c3ccccc3C(F)(F)F)c2O1 [Compound I-57, 1-{(2S)-8-[2-(trifluoromethyl)phenyl]-2,3-dihydro-1,4-benzodioxin-2-yl}methanamine] | 50 | – | < 50 |
| NC[C@H]1COc2cc(Cl)cc(-c3ccccc3Cl)c2O1 [Compound I-58, (2S)-[6-Chloro-8-(2-chloro-phenyl)-2,3-dihydro-benzo[1,4]dioxin-2-yl]-methylamine] | 50 | < 100 | < 50 |
| NC[C@H]1COc2cc(Cl)cc(-c3ccccc3F)c2O1 [Compound I-59, (2S)-[6-Chloro-8-(2-fluoro-phenyl)-2,3-dihydro-benzo[1,4]dioxin-2-yl]-methylamine] | 40 | 100 to 500 | < 50 |
